Assay results as given in patent publication US20210108198A1, “APPLICATION OF COMPOUND OR TRADITIONAL CHINESE MEDICINE EXTRACT IN PREPARATION OF NUCLEIC ACID DELIVERY AGENT AND RELATED PRODUCTS THEREOF” (INSTITUTE OF BASIC MEDICAL SCIENCES CHINESE ACADEMY OF …, priority 2017, published 2021).

Legend:
[1] = system: A549 cell; test: RT-qPCR detection of nucleic acid delivered by lipid into A549 cells; assay type: cell-based, human; conditions: various small RNA 200 nM; reverse evaporation method; 3 hours; compared with the control; FIG. 11A-C
Experimental: 3.1 NCI-N87 cell (gastric cancer cell), MRC-5 cell (lung fibroblast), A549 cell (lung cancer cell) were cultured to logarithmic growth phase, and then plated to a six-well plate at cell density of 1×10^6/2 mL medium/well; MRC-5 cell was cultured in Eagle's MEM medium (MEM, Gibco); A549 cell was cultured in Ham's F-12 medium (HyClone); NCI-N87 cell was cultured in RPMI-1640 medium (HyClone); followed by incubation overnight at 37° C., and the follow-up experiments were performed after the cells were attached to the walls.
4) Lipid nucleic acid mixture: the mixture of lipid and HJT-sRNA-m7 prepared from the step 2 were added into cells and mixed, and the final concentration of RNA was kept at 200 nM.
3.3 After co-incubation with the small RNA for 3 hours, the cells were washed 2-3 times with PBS. The cells were harvested with TRIzol lysis buffer, and the total RNA was extracted. The abundance of small RNA that entered cells was detected by RT-qPCR, and the localization of RNA was detected by fluorescence in situ hybridization; protocols of each detection method were as follows:
3.3.1 RT-qPCR Detection of Small RNA (Taqman Probe Method)
3.3.2 RT-qPCR Detection of Small RNA (SYBR Green Dye Method)
(§1) Mixtures of soybean PC, lipid No. 11 (18:0/18:2) and lipid No. 12 (16:0/18:2), and various small RNA (see below Table 3) were prepared by the reverse evaporation method and then added into A549 cell line (the final concentration of sRNA was 200 nM); the negative control group (control) was directly added with the same concentration of sRNA; the positive control group (RNAimax) was transfected with Lipofectamine RNAimax (transfection reagent 6 μl/well). The abundance of sRNA in the cells was detected by Taqman probe after 3 hours, and the relative expression level of sRNA was calculated by 2-ΔCt method.
3.1.3 After co-incubation with cells for 12-24 hours, the cells were washed twice with PBS. The cells were harvested with TRIzol lysis buffer (purchased from Sigma-Aldrich), and total RNA was extracted. The abundance of HJT-sRNA-m7 that entered the cells was detected by RT-qPCR; the protocols were as follows:
4368813) was used to reverse transcribe sRNA to cDNA by stem-loop method (see, e.g. Real-time quantification of microRNAs by stem-loop RT-PCR, Nucleic Acids Res. 2005 Nov. 27; 33(20):e179, incorporated by reference herein).

[2] = system: A549 cell line; test: Fluorescence in situ hybridization (FISH) of small RNA delivered by lipid; assay type: cell-based, human; conditions: reverse evaporation method; FIG. 12
Experimental: 3.3.3 Fluorescence In Situ Hybridization (FISH) of Small RNA
9) The culture plate was placed in a hybridization cassette in hybridization buffer (50% formamide, 5×SSC, 5× Denharts, 250 μg/mL yeast RNA, 500 μg/mL herring sperm DNA) and pre-incubated at room temperature for 1 hour.
10) Add RNA probes (HJT-sRNA-m7 probe: 5′-[…]-3′ (SEQ ID NO: 27), Scrambled probe: 5′-[…]-3′ (SEQ ID NO: 28), U6 probe: 5′-[…]-3′ (SEQ ID NO: 29)) to the hybridization buffer (the concentration of RNA probes was 0.1-0.2 ng/μ1), denature at 85° C. for 5 min, and quickly place it on ice. […]
as §1

[3] = system: 3′UTRs of their target genes; test: Luciferase with wild-type or mutated 3′UTR of target gene after lipid-mediated sRNA delivery; assay type: cell-based; conditions: FIG. 13
Text: It can be used as a means for the delivery of nucleic acid drug.

[4] = In vivo delivery of lipid nucleic acid mixture by gavage (blood and lung); set-up: species or system C57 mice; conditions: gavage 200 μl/animal; 6 hours after gavage; FIG. 14
Experimental: 1. Preparation of lipid nucleic acid mixture: the mixture of lipid No. 11 or No. 12 with nucleic acid, and the mixture of the lipid combination of No. 1/2/4/9/14/18/19/20/21/22/23/24/25/26/27/28/29/30/32, No. 3/8/10/11/12/13, and No. 6/15/16/17/31 with nucleic acid were prepared by reverse evaporation and boiling method (refer to steps 2.1-2.2).
2. Gavage were performed on 6-8 weeks old male C57 mice: 200 μl/aminal, grouped as follows:
(1) Control group (free uptake group): no treatment or HJT-sRNA-m7 was given by gavage;
(2) Lipid No. 11 (18:0/18:2) group: lipid No. 11 (18:0/18:2) or a mixture of lipid No. 11 (18:0/18:2) and HJT-sRNA-m7 were given by gavage;
(3) Lipid No. 12 (16:0/18:2) group: lipid No. 12 (16:0/18:2) or a mixture of lipid No. 12 (16:0/18:2) and HJT-sRNA-m7 were given by gavage;
3. Sample collection: 6 hours after gavage, mouse whole blood (500 μl) and lung (110 mg) were collected by 1.5 mL TRIzol-LS or 3 mL TRIzol, respectively, homogenized and then frozen under −80° C. for storage.
4. […]

Compound	abundance of sRNA in the cells (Taqman probe) [1]	localization of delivered nucleic acid (FISH) [2]	effect on the mutated 3′UTR of target genes (Luciferase) [3]	relative expression level of the Luciferase with the wild-type 3′UTR [3]	entry of HJT-sRNA-m7 into blood and lung (RT-qPCR) [4]
CCCCC/C=C\C/C=C\CCCCCCCC(=O)O[C@H](COC(=O)CCCCCCCCCCCCCCCCC)COP(=O)([O-])OCC[N+](C)(C)C [No. 11, trimethyl(2-{[(2R)-2-[(9Z,12Z)-octadeca-9,12-dienoyloxy]-3-(octadecanoyloxy)propylphosphonato]oxy}ethyl)azanium]	could effectively facilitate nucleic acid molecules of different sequences entry into various cells	entered into cytoplasm and were primarily localized in cytoplasm	did not act on the mutated 3′UTR of their target genes	reduced the relative expression level of the Luciferase with the wild-type 3′UTR in the target gene	could promote entry of small fragments of nucleic acids into the blood and lung
CCCCC/C=C\C/C=C\CCCCCCCC(=O)O[C@H](COC(=O)CCCCCCCCCCCCCCC)COP(=O)([O-])OCC[N+](C)(C)C [No. 12, (2-{[(2R)-3-(hexadecanoyloxy)-2-[(9Z,12Z)-octadeca-9,12-dienoyloxy]propylphosphonato]oxy}ethyl)trimethylazanium]	could effectively facilitate nucleic acid molecules of different sequences entry into various cells	entered into cytoplasm and were primarily localized in cytoplasm	did not act on the mutated 3′UTR of their target genes	reduced the relative expression level of the Luciferase with the wild-type 3′UTR in the target gene	could promote entry of small fragments of nucleic acids into the blood and lung
